Laboratory results published in ChEMBL document CHEMBL3272010, “Antimycotic imidazoles. 3. Synthesis and antimycotic properties of 1-[2-(aryloxyalkyl)-2-phenylethyl]-1H-imidazoles” (1977).

Each molecule was assayed on Microsporum canis (assay: Antifungal activity against Microsporum canis assessed as lowest dose required to total inhibition of fungal growth).
Format: functional

SMILES | GI
Clc1ccc(C(CCOc2ccc(Br)cc2)Cn2ccnc2)c(Cl)c1.O=[N+]([O-])O (stereo unspecified) | <10 µg/mL
Clc1ccc(COC(Cn2ccnc2)c2ccc(Cl)cc2Cl)c(Cl)c1 (stereo unspecified) [MICONAZOLE] | 1 µg/mL
Clc1ccc(C(CCCOc2ccccc2Br)Cn2ccnc2)c(Cl)c1.O=C(O)C(=O)O (stereo unspecified) | <1 µg/mL
Clc1ccc(OCC(Cn2ccnc2)c2ccc(Br)cc2)cc1.O=[N+]([O-])O (stereo unspecified) | 10 µg/mL

The molecules below were run on Trichophyton mentagrophytes (assay: Antifungal activity against Trichophyton mentagrophytes assessed as lowest dose required to total inhibition of fungal growth).
Format: functional

SMILES | GI
Clc1ccc(C(CCOc2ccc(Br)cc2)Cn2ccnc2)c(Cl)c1.O=[N+]([O-])O (stereo unspecified) | <10 µg/mL
Clc1ccc(COC(Cn2ccnc2)c2ccc(Cl)cc2Cl)c(Cl)c1 (stereo unspecified) [MICONAZOLE] | <1 µg/mL
Clc1ccc(C(CCCOc2ccccc2Br)Cn2ccnc2)c(Cl)c1.O=C(O)C(=O)O (stereo unspecified) | <1 µg/mL
Clc1ccc(OCC(Cn2ccnc2)c2ccc(Br)cc2)cc1.O=[N+]([O-])O (stereo unspecified) | <1 µg/mL

Each molecule was assayed on Trichophyton rubrum (assay: Antifungal activity against Trichophyton rubrum assessed as lowest dose required to total inhibition of fungal growth).
Format: functional

SMILES | GI
Clc1ccc(C(CCOc2ccc(Br)cc2)Cn2ccnc2)c(Cl)c1.O=[N+]([O-])O (stereo unspecified) | <10 µg/mL
Clc1ccc(COC(Cn2ccnc2)c2ccc(Cl)cc2Cl)c(Cl)c1 (stereo unspecified) [MICONAZOLE] | <1 µg/mL
Clc1ccc(C(CCCOc2ccccc2Br)Cn2ccnc2)c(Cl)c1.O=C(O)C(=O)O (stereo unspecified) | <1 µg/mL
Clc1ccc(OCC(Cn2ccnc2)c2ccc(Br)cc2)cc1.O=[N+]([O-])O (stereo unspecified) | <1 µg/mL

Each molecule was assayed on Cryptococcus neoformans (assay: Antifungal activity against Cryptococcus neoformans assessed as lowest dose required to total inhibition of fungal growth).
Format: functional

SMILES | GI
Clc1ccc(C(CCOc2ccc(Br)cc2)Cn2ccnc2)c(Cl)c1.O=[N+]([O-])O (stereo unspecified) | <10 µg/mL
Clc1ccc(COC(Cn2ccnc2)c2ccc(Cl)cc2Cl)c(Cl)c1 (stereo unspecified) [MICONAZOLE] | 1 µg/mL
Clc1ccc(C(CCCOc2ccccc2Br)Cn2ccnc2)c(Cl)c1.O=C(O)C(=O)O (stereo unspecified) | <1 µg/mL
Clc1ccc(OCC(Cn2ccnc2)c2ccc(Br)cc2)cc1.O=[N+]([O-])O (stereo unspecified) | 10 µg/mL

These molecules were tested on Candida tropicalis (assay: Antifungal activity against Candida tropicalis assessed as lowest dose required to total inhibition of fungal growth).
Format: functional

SMILES | GI
Clc1ccc(C(CCOc2ccc(Br)cc2)Cn2ccnc2)c(Cl)c1.O=[N+]([O-])O (stereo unspecified) | 100 µg/mL
Clc1ccc(COC(Cn2ccnc2)c2ccc(Cl)cc2Cl)c(Cl)c1 (stereo unspecified) [MICONAZOLE] | 100 µg/mL
Clc1ccc(C(CCCOc2ccccc2Br)Cn2ccnc2)c(Cl)c1.O=C(O)C(=O)O (stereo unspecified) | >100 µg/mL
Clc1ccc(OCC(Cn2ccnc2)c2ccc(Br)cc2)cc1.O=[N+]([O-])O (stereo unspecified) | >100 µg/mL

The molecules below were run on Candida albicans (assay: Antifungal activity against Candida albicans assessed as lowest dose required to total inhibition of fungal growth).
Format: functional

SMILES | GI
Clc1ccc(C(CCOc2ccc(Br)cc2)Cn2ccnc2)c(Cl)c1.O=[N+]([O-])O (stereo unspecified) | <10 µg/mL
Clc1ccc(COC(Cn2ccnc2)c2ccc(Cl)cc2Cl)c(Cl)c1 (stereo unspecified) [MICONAZOLE] | 10 µg/mL
Clc1ccc(C(CCCOc2ccccc2Br)Cn2ccnc2)c(Cl)c1.O=C(O)C(=O)O (stereo unspecified) | 100 µg/mL
Clc1ccc(OCC(Cn2ccnc2)c2ccc(Br)cc2)cc1.O=[N+]([O-])O (stereo unspecified) | 100 µg/mL

Each molecule was assayed on Mucor (assay: Antifungal activity against Mucor species assessed as lowest dose required to total inhibition of fungal growth).
Format: functional

SMILES | GI
Clc1ccc(C(CCOc2ccc(Br)cc2)Cn2ccnc2)c(Cl)c1.O=[N+]([O-])O (stereo unspecified) | 100 µg/mL
Clc1ccc(COC(Cn2ccnc2)c2ccc(Cl)cc2Cl)c(Cl)c1 (stereo unspecified) [MICONAZOLE] | >100 µg/mL
Clc1ccc(C(CCCOc2ccccc2Br)Cn2ccnc2)c(Cl)c1.O=C(O)C(=O)O (stereo unspecified) | >100 µg/mL
Clc1ccc(OCC(Cn2ccnc2)c2ccc(Br)cc2)cc1.O=[N+]([O-])O (stereo unspecified) | >100 µg/mL

Each molecule was assayed on Aspergillus fumigatus (assay: Antifungal activity against Aspergillus fumigatus assessed as lowest dose required to total inhibition of fungal growth).
Format: functional

SMILES | GI
Clc1ccc(C(CCOc2ccc(Br)cc2)Cn2ccnc2)c(Cl)c1.O=[N+]([O-])O (stereo unspecified) | 100 µg/mL
Clc1ccc(COC(Cn2ccnc2)c2ccc(Cl)cc2Cl)c(Cl)c1 (stereo unspecified) [MICONAZOLE] | 10 µg/mL
Clc1ccc(C(CCCOc2ccccc2Br)Cn2ccnc2)c(Cl)c1.O=C(O)C(=O)O (stereo unspecified) | 100 µg/mL
Clc1ccc(OCC(Cn2ccnc2)c2ccc(Br)cc2)cc1.O=[N+]([O-])O (stereo unspecified) | 100 µg/mL

These molecules were tested on Sporothrix schenckii (assay: Antifungal activity against Sporothrix schenckii assessed as lowest dose required to total inhibition of fungal growth).
Format: functional

SMILES | GI
Clc1ccc(C(CCOc2ccc(Br)cc2)Cn2ccnc2)c(Cl)c1.O=[N+]([O-])O (stereo unspecified) | <10 µg/mL
Clc1ccc(COC(Cn2ccnc2)c2ccc(Cl)cc2Cl)c(Cl)c1 (stereo unspecified) [MICONAZOLE] | 1 µg/mL
Clc1ccc(C(CCCOc2ccccc2Br)Cn2ccnc2)c(Cl)c1.O=C(O)C(=O)O (stereo unspecified) | 10 µg/mL
Clc1ccc(OCC(Cn2ccnc2)c2ccc(Br)cc2)cc1.O=[N+]([O-])O (stereo unspecified) | 10 µg/mL

These molecules were tested on Saprolegnia (assay: Antifungal activity against Saprolegnia species assessed as lowest dose required to total inhibition of fungal growth).
Format: functional

SMILES | GI
Clc1ccc(C(CCOc2ccc(Br)cc2)Cn2ccnc2)c(Cl)c1.O=[N+]([O-])O (stereo unspecified) | <10 µg/mL
Clc1ccc(COC(Cn2ccnc2)c2ccc(Cl)cc2Cl)c(Cl)c1 (stereo unspecified) [MICONAZOLE] | 10 µg/mL
Clc1ccc(C(CCCOc2ccccc2Br)Cn2ccnc2)c(Cl)c1.O=C(O)C(=O)O (stereo unspecified) | 100 µg/mL
Clc1ccc(OCC(Cn2ccnc2)c2ccc(Br)cc2)cc1.O=[N+]([O-])O (stereo unspecified) | >100 µg/mL

Each molecule was assayed on Phialophora verrucosa (assay: Antifungal activity against Phialophora verrucosa assessed as lowest dose required to total inhibition of fungal growth).
Format: functional

SMILES | GI
Clc1ccc(C(CCOc2ccc(Br)cc2)Cn2ccnc2)c(Cl)c1.O=[N+]([O-])O (stereo unspecified) | <10 µg/mL
Clc1ccc(COC(Cn2ccnc2)c2ccc(Cl)cc2Cl)c(Cl)c1 (stereo unspecified) [MICONAZOLE] | 100 µg/mL
Clc1ccc(C(CCCOc2ccccc2Br)Cn2ccnc2)c(Cl)c1.O=C(O)C(=O)O (stereo unspecified) | 100 µg/mL
Clc1ccc(OCC(Cn2ccnc2)c2ccc(Br)cc2)cc1.O=[N+]([O-])O (stereo unspecified) | 100 µg/mL

Each molecule was assayed on Erysipelothrix rhusiopathiae (assay: Antibaterial activity against Erysipelothrix insidiosa assessed as lowest dose required to total inhibition of bacterial growth).
Format: functional

SMILES | GI
Clc1ccc(C(CCOc2ccc(Br)cc2)Cn2ccnc2)c(Cl)c1.O=[N+]([O-])O (stereo unspecified) | <10 µg/mL
Clc1ccc(COC(Cn2ccnc2)c2ccc(Cl)cc2Cl)c(Cl)c1 (stereo unspecified) [MICONAZOLE] | <1 µg/mL
Clc1ccc(C(CCCOc2ccccc2Br)Cn2ccnc2)c(Cl)c1.O=C(O)C(=O)O (stereo unspecified) | <1 µg/mL
Clc1ccc(OCC(Cn2ccnc2)c2ccc(Br)cc2)cc1.O=[N+]([O-])O (stereo unspecified) | <1 µg/mL

What follows are molecules tested on Staphylococcus haemolyticus (assay: Antibaterial activity against Staphylococcus haemolyticus assessed as lowest dose required to total inhibition of bacterial growth).
Format: functional

SMILES | GI
Clc1ccc(C(CCOc2ccc(Br)cc2)Cn2ccnc2)c(Cl)c1.O=[N+]([O-])O (stereo unspecified) | 100 µg/mL
Clc1ccc(COC(Cn2ccnc2)c2ccc(Cl)cc2Cl)c(Cl)c1 (stereo unspecified) [MICONAZOLE] | 10 µg/mL
Clc1ccc(C(CCCOc2ccccc2Br)Cn2ccnc2)c(Cl)c1.O=C(O)C(=O)O (stereo unspecified) | 10 µg/mL
Clc1ccc(OCC(Cn2ccnc2)c2ccc(Br)cc2)cc1.O=[N+]([O-])O (stereo unspecified) | 10 µg/mL

The molecules below were run on Streptococcus pyogenes (assay: Antibaterial activity against Streptococcus pyogenes assessed as lowest dose required to total inhibition of bacterial growth).
Format: functional

SMILES | GI
Clc1ccc(C(CCOc2ccc(Br)cc2)Cn2ccnc2)c(Cl)c1.O=[N+]([O-])O (stereo unspecified) | <10 µg/mL
Clc1ccc(COC(Cn2ccnc2)c2ccc(Cl)cc2Cl)c(Cl)c1 (stereo unspecified) [MICONAZOLE] | <1 µg/mL
Clc1ccc(C(CCCOc2ccccc2Br)Cn2ccnc2)c(Cl)c1.O=C(O)C(=O)O (stereo unspecified) | <1 µg/mL
Clc1ccc(OCC(Cn2ccnc2)c2ccc(Br)cc2)cc1.O=[N+]([O-])O (stereo unspecified) | <1 µg/mL
